Results taken from patent US7557089B2, “Use of derivatives of succinate esters for the treatment of dementia” (priority 2002, dated 2009).
Like-named read-outs stand apart in the source and are kept apart here.

Assays:
[1] = system: learning and memory performance impairment caused by permanent occlusion of carotid arteries; assay: Step-down test, permanent occlusion of 2 carotid arteries (2-VO) in mice; assay type: in vivo
Procedure: (§1) At surgery, under pentobarbital anaesthesia (40 mg/kg i.p.), the common carotid arteries of mice were exposed and occluded with thread permanently and the surrounding skin sutured. Sham-operated controls had their carotids exposed but not occluded. After 1 week, the survival mice with occluded carotids were randomly divided into 3 groups. 2 groups were repeated administered with CE (5 mg/kg, po) or W6 (1 mg/kg, po) daily. Four weeks after surgery, mice were trained and tested in a water maze and step-down apparatus.

[2] = system: Aβ(1-42)-induced memory impairment; assay: Step-down test, Aβ(1-42)-induced impairment (ICV injection) in mice; assay type: in vivo
Procedure: (§2) Aβ(1-42) (10 μg/mouse) was administered via ICV injection. The sham group was given same volumn of Ringer's solution. One week later, The mice with injection of Aβ(1-42) were randomly divided into 3 groups, and were administered by oral with saline, CE (5 mg/kg) or W6 (1 mg/kg), respectively. Two weeks later, step-down test and water-maze test were performed for evaluating the capacity of learning and memory of mice.

KM mice = assay: Acute toxicity study in mice; assay type: in vivo; conditions: 0.5 g/kg i.p. or p.o.
From the text: KM mice were used for this experiment. 10 male and 10 female mice were included in each group. CE (5 g/kg) or W6-W9 (0.5 g/kg) were given by oral or by i.p. The animals were observed carefully and their body weight were checked every 3 days within 2 weeks.

[3] = system: cycloheximide-induced memory deficit; assay: Step-down passive avoidance test, impairment induced by cycloheximide in mice; assay type: in vivo; conditions: for Improvement (%): step-down latency; for Improvement (%) / Latency / No. of errors: cycloheximide 120 mg/kg i.p.; for Latency / No. of errors: step-down test; for No. of errors: during 5 min
Procedure: The randomization and the administration of drugs are as before. The mice were administered with cycloheximide (120 mg/kg i.p), except for the control group. 30 min later, each mouse was individually placed onto the platform of the step-down apparatus, and trained for 5 min. The retention test started 24 hours later, the step-down latency and the number of step-down events (number of errors) during 5 min were recorded.

[4] = system: Aβ(1-42)-induced memory impairment; assay: Water-maze test, Aβ(1-42)-induced impairment of learning and memory in mice; assay type: in vivo
Procedure: as §2
(§3) Water-maze test: Each mouse was first placed on the stairs, then released into the water from position 1 and allowed 120 sec to find the stairs. The mouse received 2 trials per day for 3 days. The starting location varied from position 1 to position 2 and position 3 for the next 2 day. The distance and the dead end increased every day. In D4, the mouse was put into water from position 3, the time to escape from water to the stairs and the number of entering the dead ends (number of errors) were measured. This method is used to evaluate the spatial performance and learning and memory performance of animal.

[5] = system: memory impairment induced by scopolamine; assay: Step-down passive avoidance test, impairment caused by scopolamine in mice; assay type: in vivo, Male ICR mice; conditions: for Number of errors: during 5 min; for Number of errors / Latency: scopolamine 1 mg/kg i.p.; for effect on scopolamine-induced impairment of passive avoidance (step-down latency, number of errors): result in words
Procedure: Male ICR mice, 24-28 g, were used. The mice were housed for 2 days period of habituation before experiment. Mice were randomized into groups (n=20).
The mice were administered by gavage of physiological saline, or drugs at different doses, respectively in the negative control, scopolamine group, and test drugs groups. Twice daily for 2 days.
At D3, 30 min after administration of test drugs, scopolamine (1 mg/kg i.p) was administered, except for the control group.
30 min later, each mouse was individually placed onto the safety platform in the box of step-down apparatus. When the mouse stepped down and touched the grid floor, it was given an electric shock with a tension of 36V, and jumped back onto the rubber platform. Each animal was trained for 5 min and returned to the home cage.
24 hours after the learning trial, the animal was again placed on the platform and the step-down latency and the number of step-down events (number of errors) during 5 min were recorded.

[6] = molecular target: Acetylcholinesterase (AchE) (Rattus norvegicus, UniProt P37136); conditions: for inhibition (%): AchE activity, rat forebrain; for AchE activity: rat forebrain homogenate
Procedure: The rats were fasting over night and given a single oral dose of drugs. 1 hour later, the rats were decapitated, the forebrains were rapidly removed under ice bath, weighed and homogenized in 0.9% saline using a ultrasonic homogenizer to obtain 10% brain homogenate. The homogenate was centrifuged (6000 rpm) for 20 mins at low temperature, and retained the supernatant. Then the AchE activity was measured with an assay kit.

[7] = system: learning and memory performance impairment caused by permanent occlusion of carotid arteries; assay: Water-maze test, permanent occlusion of 2 carotid arteries (2-VO) in mice; assay type: in vivo; conditions: 2-VO mice, four weeks after surgery, dose 1 mg/kg po daily
From the text: as §3, §1

[8] = step-down test, 2-VO mice, four weeks after surgery, dose 1 mg/kg po daily
[9] = step-down test, Aβ(1-42) 10 μg/mouse ICV, mice, dose 1 mg/kg oral, two weeks
[10] = 1 hour after single oral dose 5 mg/kg
[11] = 1 hour after single oral dose 20 mg/kg

Sequence of Acetylcholinesterase (AchE) (P37136 32-614): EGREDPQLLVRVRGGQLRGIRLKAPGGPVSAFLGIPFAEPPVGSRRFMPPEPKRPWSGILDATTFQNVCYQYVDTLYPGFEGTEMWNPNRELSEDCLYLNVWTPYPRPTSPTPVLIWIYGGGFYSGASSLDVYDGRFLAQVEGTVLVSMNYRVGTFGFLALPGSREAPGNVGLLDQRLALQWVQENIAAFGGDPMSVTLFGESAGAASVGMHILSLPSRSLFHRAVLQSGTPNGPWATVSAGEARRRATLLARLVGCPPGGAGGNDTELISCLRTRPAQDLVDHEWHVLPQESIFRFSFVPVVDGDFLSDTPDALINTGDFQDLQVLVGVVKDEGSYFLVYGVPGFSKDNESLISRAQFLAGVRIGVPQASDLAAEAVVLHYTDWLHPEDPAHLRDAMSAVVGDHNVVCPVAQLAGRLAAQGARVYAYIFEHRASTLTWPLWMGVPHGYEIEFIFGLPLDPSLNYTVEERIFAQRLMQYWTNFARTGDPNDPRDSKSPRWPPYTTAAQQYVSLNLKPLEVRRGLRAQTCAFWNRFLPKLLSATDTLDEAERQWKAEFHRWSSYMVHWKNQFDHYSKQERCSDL

## CC(C)CC(O[C@@H]1O[C@H](CO)[C@@H](O)[C@H](O)[C@H]1O)(C(=O)OCc1ccc(O[C@@H]2O[C@H](CO)[C@@H](O)[C@H](O)[C@H]2O)cc1)C(O)C(=O)OCc1ccc(O[C@@H]2O[C@H](CO)[C@@H](O)[C@H](O)[C@H]2O)cc1 (stereo partly drawn) [Compound W6, 1,4-bis(β-D-glucopyranosyloxybenzyl)-2-β-D-glucopyranosyl-2-isobutyltartrate]
[1]; mice and rats, long term treatment, step-down testing and water-maze testing, result in words
  effect on deficits of learning and memory caused by cerebral hypoperfusion: significantly alleviated these changes
[1]; [8]
  Latency: 253 ± 31 s
  Number of errors: 0.2 ± 0.1
[2]; mice or rats, treatment for 2 weeks, result in words
  effect on Aβ(1-42)-induced impairment in passive avoidance performance: significantly blocked
[2]; [9]
  Latency: 110 ± 37 s
  Number of errors: 0.9 ± 0.2
KM mice
  acute toxicity (animal death and body weight): The result is the same
[3]; passive avoidance, result in words
  effect on cycloheximide-induced reduction of latency and number of errors: significantly reversed the cycloheximide-induced reduction of step-down latency
[3]; dose 1.25 mg/kg
  Improvement (%): 57%
  Latency: 211 ± 31 s
  No. of errors: 0.6 ± 1.2
[3]; dose 2.5 mg/kg
  Improvement (%): 65%
  Latency: 223 ± 24 s
  No. of errors: 0.7 ± 0.9
[3]; dose 5 mg/kg
  Improvement (%): 38%
  Latency: 182 ± 33 s
  No. of errors: 0.4 ± 0.5
[3]; dose 10 mg/kg
  Improvement (%): 61%
  Latency: 216 ± 29 s
  No. of errors: 0.3 ± 0.5
[4]; treatment for 2 weeks, water maze, result in words
  effect on Aβ(1-42)-induced decrease in spatial working memory: significantly improved
[4]; water-maze test (entering dead ends), Aβ(1-42) 10 μg/mouse ICV, mice, dose 1 mg/kg oral, two weeks
  Number of errors: 3.1 ± 0.8
[4]; water-maze test, Aβ(1-42) 10 μg/mouse ICV, mice, dose 1 mg/kg oral, two weeks
  Escape Latency: 46 ± 11 s
[5]; dose 0.03 mg/kg by gavage
  Number of errors: 0.2 ± 0.1
  Latency: 283 ± 38 s
[5]; dose 0.3 mg/kg by gavage
  Number of errors: 0.4 ± 0.2
  Latency: 259 ± 34 s
[5]; dose 3 mg/kg by gavage
  Number of errors: 0.3 ± 0.1
  Latency: 258 ± 17 s
[5]
  effect on scopolamine-induced impairment of passive avoidance (step-down latency, number of errors): attenuated the scopolamine-induced impairment of passive avoidance behaviors
[6]; [10]
  inhibition (%): 0%
  AchE activity: 0.80 ± 0.16
[6]; [11]
  inhibition (%): 0%
  AchE activity: 0.72 ± 0.16
[6]; single dose to rats
  inhibition on activity of AchE: no inhibition
[7]
  Escape Latency: 33 ± 19 s
  Number of errors: 5.4 ± 1.4

## CC(C)CC(O)(C(=O)OCc1ccc(O[C@@H]2O[C@H](CO)[C@@H](O)[C@H](O)[C@H]2O)cc1)C(O)C(=O)OCc1ccc(O[C@@H]2O[C@H](CO)[C@@H](O)[C@H](O)[C@H]2O)cc1 (stereo partly drawn) [Compound W7, 1,4-bis(β-D-glucopyranosyloxybenzyl)-2-isobutyltartrate]
KM mice
  acute toxicity (animal death and body weight): The result is the same
[5]; dose 0.25 mg/kg by gavage
  Number of errors: 0.4 ± 0.7
  Latency: 205 ± 142 s
[5]; dose 1 mg/kg by gavage
  Number of errors: 0.2 ± 0.4
  Latency: 237 ± 125 s
[5]
  effect on scopolamine-induced impairment of passive avoidance (step-down latency, number of errors): attenuated the scopolamine-induced impairment of passive avoidance behaviors

## CC(C)CC(CC(=O)OCc1ccc(O[C@@H]2O[C@H](CO)[C@@H](O)[C@H](O)[C@H]2O)cc1)(O[C@@H]1O[C@H](CO)[C@@H](O)[C@H](O)[C@H]1O)C(=O)OCc1ccc(O[C@@H]2O[C@H](CO)[C@@H](O)[C@H](O)[C@H]2O)cc1 (stereo partly drawn) [Compound W8, 1,4-bis(β-D-glucopyranosyloxybenzyl)-2-β-D-glucopyranosyl-2-isobutylmalate]
KM mice
  acute toxicity (animal death and body weight): The result is the same
[5]; dose 0.25 mg/kg by gavage
  Number of errors: 0.7 ± 0.9
  Latency: 197 ± 144 s
[5]; dose 1 mg/kg by gavage
  Number of errors: 0.3 ± 0.5
  Latency: 218 ± 127 s
[5]
  effect on scopolamine-induced impairment of passive avoidance (step-down latency, number of errors): attenuated the scopolamine-induced impairment of passive avoidance behaviors

## CC(C)CC(O)(CC(=O)OCc1ccc(O[C@@H]2O[C@H](CO)[C@@H](O)[C@H](O)[C@H]2O)cc1)C(=O)OCc1ccc(O[C@@H]2O[C@H](CO)[C@@H](O)[C@H](O)[C@H]2O)cc1 (stereo partly drawn) [Compound W9, 1,4-bis(β-D-glucopyranosyloxybenzyl)-2-hydroxy-2-isobutylmalate]
KM mice
  acute toxicity (animal death and body weight): The result is the same
[5]; dose 0.25 mg/kg by gavage
  Number of errors: 0.8 ± 0.7
  Latency: 140 ± 129 s
[5]; dose 1 mg/kg by gavage
  Number of errors: 0.4 ± 0.5
  Latency: 210 ± 134 s
[5]
  effect on scopolamine-induced impairment of passive avoidance (step-down latency, number of errors): attenuated the scopolamine-induced impairment of passive avoidance behaviors
